The test system of one experiment is H3K9AC (HT1080 cells). The experiment is described as follows: H3K9AC Sandwich ELISA Assay in HT1080 cells (KAT2A primary cell-based screening assay). Also on record: species or system Human. As to the method:
Human fibrosarcoma cell line HT1080 was obtained from American Type Culture Collection (ATCC), Manassas, VA USA, Cat. HT-1080 (ATCC® CCL-121™). Cells were cultured in MEM (Thermo Fisher Scientific/Gibco Life Technologies Cat. #11-095-080) plus 10% (v/v) FBS (Thermo Fisher Scientific/Gibco Life Technologies Cat. #26140-079) and 1% Penicillin-Streptomycin (Thermo Fisher Scientific/Gibco Life Technologies Cat. #15070063) at 37° C. in 5% CO2.
HT1080 cells were trypsinized, cell viability count performed, and cells suspended in complete media at 100,000 cells/ml. Cells were seeded (100 μl/well) into Greiner Bio-One CELLSTAR 96-well polystyrene flat bottom cell culture microplate (Thermo Fisher Scientific Cat. #07-000-162) at a density of 10,000 cells/well. Cells were incubated for 16 hours at 37° C. at 5% CO2. Compound dilution plates were prepared in 96-well, clear U-bottom, polypropylene plates (Corning 3365) in 100% DMSO at 10 mM stock concentration in duplicate, using 10-point serial dilution (1:3). Compounds were diluted to 1:200 in growth medium and 25 μl from intermediate compound plates were added to each well of the cell plates using a Beckman FX liquid handling system such that the highest compound concentration tested was 10 μM final, with a 0.1% final DMSO concentration in the total volume of 125 μl. Plates were incubated for 24 hours at 37° C. and 5% CO2. Plates were centrifuged at 2500 rpm for 5 minutes and medium was removed. 100 μL 0.4N HCL (Thermo Fisher Scientific Cat #SA56-1) was added to each well and plates were shaken for 60 minutes at 4C to lyse cells. 38ul 0.4N Sodium phosphase dibasic pH12.5 (Thermo Fisher Scientific Cat #S375-212) containing 2 mM Sodium Butyrate (Millipore TR1008G) and 3 mM Phenylmethanesulfonyl-fluoride (Sigma 93482) was added to each well to neutralize lysates.
Cell lysate plates were mixed for 5 minutes at room temperature on shaker and immediately frozen at −80C overnight. Cell lysates were thawed and 50 μL/well was transferred to ELISA plates (Total Histone H3 mouse (Cell Signaling Technology Cat #14269) mAb-coated Corning 1×8 strip-well, white, 96-well plates (Corning 2485)). After 2 hours room temperature incubation, plates were washed six times with PBS/0.05% Tween Wash Buffer using a BioTek plate washer. 50 μL of Histone H3K9AC rabbit detection mAb (Cell Signaling Technology Cat #9649S) diluted 1:1000 in blocking buffer (Thermo Fisher Scientific Cat #37542) was added to each well and incubated for 2 hours at room temperature. After washing, 50 μL anti-rabbit IgG, HRP-Linked antibody (Cell Signaling Technology Cat #7074) diluted 1:1000 in blocking buffer was added to each well and incubated for 60 minutes at room temperature. Following incubation, plates were washed as described above. 50 μL of luminescent GLO substrate reagent (R&D System Cat #DY993) was added to each well and incubated for 10 minutes at room temperature. Plates were read on the PHERAstar plate reader using the 96-well with Luminescent reading mode. IC50 values were calculated using a four-parameter fit with GraphPad Prism version 9.5.1 or in-house modified IDBS ActivityBase data analyzing package.

The next experiment concerns the target KAT2A (Homo sapiens (Human), UniProt Q92830). Briefly: KAT2A acetyltransferase biochemical assay (RapidFire mass spectrometry, AcCoA to CoA).
Setting [1] is: Homo sapiens, HT-1080, H3K9AC sandwich ELISA.
The mark [2] stands for this setting: read-out: KAT2A Ki at 1 μM AcCoA, 5 μM H3 1-21 peptide, 0.5 nM KAT2A, 90-minute reaction.
[3] abbreviates: KAT2A Ki at 1 μM AcCoA, 5 μM H3 1-21 peptide, 0.5 nM KAT2A, 90-minute reaction.

Read-outs that look alike come from different tables or passages of the source. Where only a bound is given, the exact number is not on record here.

The values below come from patent US20250188030A1, “Biphenyl and Phenylpyridine Compounds” (Pfizer Inc., priority 2023, published 2025).

KAT2A, sequence (Q92830 whole entry): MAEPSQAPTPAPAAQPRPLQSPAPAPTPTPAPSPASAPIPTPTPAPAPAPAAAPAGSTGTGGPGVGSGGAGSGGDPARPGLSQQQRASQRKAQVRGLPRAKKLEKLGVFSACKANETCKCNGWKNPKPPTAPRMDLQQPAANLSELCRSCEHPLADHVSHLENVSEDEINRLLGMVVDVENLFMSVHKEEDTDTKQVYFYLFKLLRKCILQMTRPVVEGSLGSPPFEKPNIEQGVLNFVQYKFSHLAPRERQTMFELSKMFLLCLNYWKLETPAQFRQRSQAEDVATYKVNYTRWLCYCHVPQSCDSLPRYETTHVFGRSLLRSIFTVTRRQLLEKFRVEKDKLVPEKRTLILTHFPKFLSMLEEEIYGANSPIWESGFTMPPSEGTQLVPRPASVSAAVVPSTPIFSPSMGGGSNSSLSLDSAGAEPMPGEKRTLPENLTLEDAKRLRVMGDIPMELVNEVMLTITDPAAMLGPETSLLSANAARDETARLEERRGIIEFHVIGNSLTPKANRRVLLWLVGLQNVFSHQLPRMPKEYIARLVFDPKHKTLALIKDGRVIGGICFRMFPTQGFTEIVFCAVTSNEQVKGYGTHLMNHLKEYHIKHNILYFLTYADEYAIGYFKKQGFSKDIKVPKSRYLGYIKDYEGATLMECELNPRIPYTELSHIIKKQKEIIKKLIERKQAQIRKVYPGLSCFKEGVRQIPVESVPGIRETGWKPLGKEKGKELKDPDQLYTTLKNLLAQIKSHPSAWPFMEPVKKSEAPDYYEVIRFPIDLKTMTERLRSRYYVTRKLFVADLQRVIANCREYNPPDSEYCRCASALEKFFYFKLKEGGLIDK

The molecule `O=C(O)c1ccc(O[C@@H]2CC[C@@H](NC(=O)[C@@]3(F)CNC4(CCC4)C3)C2)c(-c2cccc(F)c2C2CCC2)c1` [Example A29, 2′-cyclobutyl-3′-fluoro-6-{[(1R,3R)-3-{[(7S)-7-fluoro-5-azaspiro[3.4]octane-7-carbonyl]amino}cyclopentyl]oxy}[1,1′-biphenyl]-3-carboxylic acid] displayed an IC50 with H3K9AC (HT1080 cells) (setting [1]) of over 1000 nM. For the same molecule, the inhibition constant (Ki) on KAT2A (setting [2]) was 0.11 nM.

Consider `CC1(C)CNC[C@](F)(C(=O)N[C@@H]2CC[C@@H](Oc3cccc(CC(=O)O)c3-c3cccc(F)c3C3CCC3)C2)C1` (atropisomer, axis not shown) [Example H12, [(1 ψ)-2′-cyclobutyl-3′-fluoro-6-{[(1R,3R)-3-{[(3ξ)-3-fluoro-5,5-dimethylpiperidine-3-carbonyl]amino}cyclopentyl]oxy}[1,1′-biphenyl]-2-yl]acetic acid], for which, in the experiment on H3K9AC (HT1080 cells) (H3K9AC sandwich ELISA), the IC50 is over 1000 nM. Besides, on KAT2A (setting [2]), the Ki is over 99.9 nM.

Regarding `CN1CC(C)(C)C[C@H]1C(=O)N[C@H]1C[C@H](Oc2ccc(C(C)(C)C(=O)O)cc2-c2cccc(F)c2C2CCC2)C[C@H]1O` [Example K1, 2-[2′-cyclobutyl-3′-fluoro-6-({(1S,3R,4S)-3-hydroxy-4-[(1,4,4-trimethyl-L-prolyl)amino]cyclopentyl}oxy)[1,1′-biphenyl]-3-yl]-2-methylpropanoic acid], the IC50 in the experiment on H3K9AC (HT1080 cells) (setting [1]) is 5.19 nM. Besides, at KAT2A (setting [3]), the affinity corresponds to a Ki of 0.15 nM.

In turn, `CC(C)S(=O)(=O)NC(=O)c1cccc(O[C@@H]2CC[C@@H](NC(=O)[C@@]3(F)CNC4(CCC4)C3)C2)c1-c1cccc(F)c1C1CCC1` (atropisomer, axis not shown) [Example I19, (7S)-N-[(1R,3R)-3-({(1ψ)-2′-cyclobutyl-3′-fluoro-6-[(propane-2-sulfonyl)carbamoyl][1,1′-biphenyl]-2-yl}oxy)cyclopentyl]-7-fluoro-5-azaspiro[3.4]octane-7-carboxamide] came in with an IC50 with H3K9AC (HT1080 cells) (setting [1]) of 7.1 nM. For the same molecule, the Ki on KAT2A (setting [2]) turned out to be 13.7 nM.

In the experiment on H3K9AC (HT1080 cells) (H3K9AC sandwich ELISA), `CN(C)S(=O)(=O)NC(=O)c1cccc(O[C@@H]2CC[C@@H](NC(=O)[C@@]3(F)CNC4(CCC4)C3)C2)c1-c1cccc(F)c1C1CCC1` [Example I20, (7S)-N-[(1R,3R)-3-({(1ψ)-2′-cyclobutyl-6-[(dimethylsulfamoyl)carbamoyl]-3′-fluoro[1,1′-biphenyl]-2-yl}oxy)cyclopentyl]-7-fluoro-5-azaspiro[3.4]octane-7-carboxamide] came in with a half-inhibitory concentration (IC50) of 51.9 nM. Moreover, the Ki at KAT2A (setting [2]) amounted to 26.3 nM.

The molecule `CN1CC(C)(C)C[C@H]1C(=O)N[C@@H]1CC[C@@H](Oc2cccc(C(=O)NS(=O)(=O)N(C)C)c2-c2cccc(F)c2C2CCC2)C1` (atropisomer, axis not shown) [Example I7, N-[(1R,3R)-3-({(1ψ)-2′-cyclobutyl-6-[(dimethylsulfamoyl)carbamoyl]-3′-fluoro[1,1′-biphenyl]-2-yl}oxy)cyclopentyl]-1,4,4-trimethyl-L-prolinamide] registered a 50% inhibitory concentration (IC50) in the experiment with H3K9AC (HT1080 cells) (setting [1]) of 41.4 nM. For the same molecule, at KAT2A (setting [2]), the inhibition constant (Ki) amounted to 24.4 nM.

In the case of `CN1CC(C)(C)CC1C(=O)N[C@H]1C[C@H](COc2ccc(CC(=O)NS(C)(=O)=O)cc2-c2cccc(F)c2C2CCC2)C1` (stereo partly drawn) [Example G1, N-[(1r,3S)-3-{[(2′-cyclobutyl-3′-fluoro-5-{2-[(methanesulfonyl)amino]-2-oxoethyl}[1,1′-biphenyl]-2-yl)oxy]methyl}cyclobutyl]-1,4,4-trimethyl-L-prolinamide], 55.2 nM corresponded to half-maximal inhibition in the experiment on H3K9AC (HT1080 cells) (setting [1]) (IC50). In addition, the Ki at KAT2A (setting [2]) was 2.55 nM.

For the molecule `CCS(=O)(=O)NC(=O)Cc1ccc(O[C@@H]2CC[C@@H](NC(=O)[C@@]3(F)CNCC4(CCC4)C3)C2)c(-c2cccc(F)c2C2CCC2)c1` (single isomer, unassigned) [Example C59], it took 440 nM to reach half-maximal inhibition in the experiment on H3K9AC (HT1080 cells) (H3K9AC sandwich ELISA) (IC50). On KAT2A (setting [2]), the inhibition constant Ki was 12.1 nM.

The molecule `CC(C)(C(=O)NS(=O)(=O)N1CC(F)C1)c1ccc(O[C@@H]2CC[C@@H](NC(=O)[C@]3(F)CNC4(CCC4)C3)C2)c(-c2cccc(F)c2C2CCC2)c1` (single isomer, unassigned) [Example B6] registered a 50% inhibitory concentration (IC50) in the experiment with H3K9AC (HT1080 cells) (setting [1]) of over 1000 nM. The inhibition constant Ki at KAT2A (setting [2]) stood at 746 nM.

`CC(C)n1cc(-c2ccc(O[C@@H]3CC[C@@H](NC(=O)[C@@]4(F)CNC5(CCC5)C4)C3)c(-c3cccc(F)c3C3CCC3)c2)c(C(=O)O)n1` (single isomer, unassigned) [Example J15]: the IC50 in the experiment on H3K9AC (HT1080 cells) (H3K9AC sandwich ELISA) came to 451 nM. For the same molecule, the Ki on KAT2A (setting [2]) was 27.3 nM.

Turning to `O=C(O)c1nn(C2CC2)cc1-c1ccc(O[C@@H]2CC[C@@H](NC(=O)[C@@]3(F)CNC4(CCC4)C3)C2)c(-c2cccc(F)c2C2CCC2)c1` (single isomer, unassigned) [Example J12], in the experiment with H3K9AC (HT1080 cells) (H3K9AC sandwich ELISA), the IC50 was over 1000 nM. Besides, the inhibition constant (Ki) on KAT2A (setting [2]) was determined as 25.8 nM.

With `CCS(=O)(=O)NC(=O)C(C)(C)c1ccc(O[C@@H]2CC[C@@H](NC(=O)C3(F)CNC4(CCC4)C3)C2)c(-c2cccc(F)c2C2CCC2)c1` (single isomer, unassigned) [Example B1], in the experiment on H3K9AC (HT1080 cells) (H3K9AC sandwich ELISA), it took 562 nM to reach half-maximal inhibition (IC50). On KAT2A (setting [3]), the inhibition constant Ki is 80.5 nM.

`CC(C)c1ccccc1-c1cc(CC(=O)NS(=O)(=O)C2(C)CC2)ccc1O[C@@H]1CC[C@@H](NC(=O)[C@@]2(F)CNCC(C)(C)C2)C1` (single isomer, unassigned) [Example C80] had an IC50 with H3K9AC (HT1080 cells) (H3K9AC sandwich ELISA) of 2.6 nM. For the same molecule, on KAT2A (setting [2]), the inhibitory constant (Ki) worked out at 0.11 nM.

`CC(C)S(=O)(=O)NC(=O)Cc1ccc(O[C@@H]2CC[C@@H](NC(=O)[C@]3(F)CNC4(CCC4)C3)C2)c(-c2cccc(F)c2C2CCC2)c1` (single isomer, unassigned) [Example C41] displayed a concentration for half-maximal inhibition (IC50) with H3K9AC (HT1080 cells) (H3K9AC sandwich ELISA) of 39.8 nM. The molecule also showed a Ki on KAT2A (setting [3]) of 4.1 nM.

In the experiment with H3K9AC (HT1080 cells) (H3K9AC sandwich ELISA), `Cn1cc(-c2ccc(O[C@@H]3CC[C@@H](NC(=O)[C@]4(F)CNC5(CCC5)C4)C3)c(-c3cccc(F)c3C3CCC3)c2)c(C(=O)O)n1` (single isomer, unassigned) [Example J9] came in with a half-maximal inhibitory concentration (IC50) of 4300 nM. The Ki at KAT2A (setting [2]) came out at 2.16 nM.

With `CCS(=O)(=O)NC(=O)C(C)c1ccc(O[C@@H]2CC[C@@H](NC(=O)[C@@]3(F)CNC4(CCC4)C3)C2)c(-c2ccccc2C(C)C)c1` (single isomer, unassigned) [Example C89], the IC50 in the experiment with H3K9AC (HT1080 cells) (H3K9AC sandwich ELISA) is 6.5 nM. The Ki on KAT2A (setting [2]) is 0.16 nM.

In the experiment with H3K9AC (HT1080 cells) (setting [1]), `CN1CC(C)(C)C[C@H]1C(=O)N[C@@H]1CC[C@@H](Oc2cccc(C(=O)NS(C)(=O)=O)c2-c2cccc(F)c2C2CCC2)C1` (atropisomer, axis not shown) [Example I1, N-[(1R,3R)-3-({(1Ψ)-2′-cyclobutyl-3′-fluoro-6-[(methanesulfonyl)carbamoyl][1,1′-biphenyl]-2-yl}oxy)cyclopentyl]-1,4,4-trimethyl-L-prolinamide] came in with a 50% inhibitory concentration (IC50) of 41.9 nM. In addition, the inhibition constant (Ki) at KAT2A (setting [2]) came to 24.5 nM.

`CN1CC(C)(C)C[C@H]1C(=O)N[C@@H]1CC[C@@H](Oc2ccc(C(=O)O)cc2-c2cccc(F)c2C2CCC2)C1` [Example D6, 2′-cyclobutyl-3′-fluoro-6-({(1R,3R)-3-[(1,4,4-trimethyl-L-prolyl)amino]cyclopentyl}oxy)[1,1′-biphenyl]-3-carboxylic acid] gave an IC50 in the experiment on H3K9AC (HT1080 cells) (setting [1]) of 19 nM. Moreover, the inhibition constant Ki on KAT2A (setting [2]) is 1.08 nM.

Molecule `CC(C)c1c(F)cccc1-c1cc(CC(=O)O)ccc1O[C@@H]1CC[C@@H](NC(=O)[C@@H]2CC(C)(C)CN2C)C1` [Example D12, [3′-fluoro-2′-(propan-2-yl)-6-({(1R,3R)-3-[(1,4,4-trimethyl-L-prolyl)amino]cyclopentyl}oxy)[1,1′-biphenyl]-3-yl]acetic acid] came in with a half-inhibitory concentration (IC50) with H3K9AC (HT1080 cells) (setting [1]) of 66.6 nM. For the same molecule, the Ki at KAT2A (setting [2]) was 12.4 nM.

In turn, `CC1(C)CNC[C@](F)(C(=O)N[C@@H]2CC[C@@H](Oc3ccc(C(=O)O)cc3-c3cccc(F)c3C3CCC3)C2)C1` (single isomer, unassigned) [Example A37] returned an IC50 with H3K9AC (HT1080 cells) (H3K9AC sandwich ELISA) of over 1000 nM. On KAT2A (setting [2]), the Ki is 0.02 nM.
